Test results published in ChEMBL document CHEMBL5512619, “Anticancer mechanism of coumarin-based derivatives” (Eur J Med Chem, 2024).
Values after ≈ are worked out from the molar mass of the structure shown. One block for each compound: values may come before it.

Key:
[1] = biological target: Bromodomain-containing protein 4 (Homo sapiens, UniProt O60885); assay: Inhibition of BRD4 (unknown origin)
RT-4 = assay: Cytotoxicity against human RT-4 cells assessed as inhibition of cell growth; assay type: functional, cell-based
LCLC-103H cell line = assay: Cytotoxicity against human LCLC-103H cell line assessed as inhibition of cell growth; assay type: functional, cell-based
A-427 = assay: Cytotoxicity against human A-427 cells assessed as inhibition of cell growth; assay type: functional, cell-based
T98G = assay: Induction of apoptosis in human T98G cells relative to control; assay type: functional
KB = assay: Antiproliferative activity against human KB cells measured after 48 hrs by MTT assay; assay type: functional, cell-based
[2] = Cytotoxicity against human BEAS-2B cells assessed as inhibition of cell growth by MTT assay; assay type: toxicity, cell-based
MCF7 [3] = assay: Cytotoxicity against human MCF7 cells assessed as inhibition of cell growth by MTT assay; assay type: functional, cell-based
A549 = assay: Cytotoxicity against human A549 cells assessed as inhibition of cell growth by MTT assay; assay type: functional, cell-based
HCT-116 [4] = assay: cells; settings: Homo sapiens, HCT-116, 72 h
Description: Antiproliferative activity against human HCT-116 cells measured after 72 hrs by SRB method

Caco-2 [5] = assay: Antiproliferative activity against human Caco-2 cells measured after 72 hrs by SRB method; settings: Caco-2, 72 h
MCF7 [6] = assay: Antiproliferative activity against human MCF7 cells measured after 72 hrs by SRB method; assay type: functional, cell-based; settings: MCF7, 72 h
HeLa = assay: Antiproliferative activity against human HeLa cells measured after 72 hrs by SRB method; assay type: functional, cell-based
HepG2 = assay: Antiproliferative activity against human HepG2 cells measured after 72 hrs by SRB method; assay type: functional, cell-based; settings: HepG2, 72 h
HCT-116 [7] = assay: Antiproliferative activity against human HCT-116 cells measured after 72 hrs in presence of paclitaxel by SRB method; assay type: functional, cell-based; settings: HCT-116, 72 h
Caco-2 [8] = assay: Antiproliferative activity against human Caco-2 cells measured after 72 hrs in presence of paclitaxel by SRB method; assay type: functional, cell-based; settings: Caco-2, 72 h
MDA-MB-231 = assay: Inhibition of cell invasion in human MDA-MB-231 cells at 100 uM measured after 24 hrs by crystal violet staining based microscopy analysis relative to control; assay type: functional

IC50 [1]: 99 nM
SMILES: CCS(=O)(=O)Nc1ccc(Oc2ccccc2OC)c(-c2ccc3oc(=O)cc(OC)c3c2)c1

SMILES: CCN(CC)c1ccc2cc(-c3nc4ccccc4o3)c(=N)oc2c1
IC50 (RT-4): < 10 nM | IC50 (LCLC-103H cell line): < 10 nM | IC50 (A-427): < 10 nM

IC50 (KB): 200000 nM
SMILES: O=c1ccc2ccc(O)cc2o1 [UMBELLIFERONE]
Activity (T98G): 15%

SMILES: C/C(=N\Cc1ccc(O)cc1)c1c(O)c2ccccc2oc1=O
IC50 [2]: 4.08 µg/mL (≈ 13.2 µM) | IC50 (MCF7 [3]): 1.41 µg/mL (≈ 4.56 µM) | IC50 (A549): 6.09 µg/mL (≈ 19.7 µM)

IC50 (HCT-116 [4]): 27.9 nM | IC50 (Caco-2 [5]): 2100 nM
SMILES: CC(=O)O[C@H]1C(=O)[C@@]2(C)[C@H]([C@H](OC(=O)c3ccccc3)[C@]3(O)C[C@H](OC(=O)[C@H](O)[C@@H](NC(=O)c4ccccc4)c4ccccc4)C(C)=C1C3(C)C)[C@]1(OC(C)=O)CO[C@@H]1C[C@@H]2O [PACLITAXEL]

IC50 (MCF7 [6]): 740 nM | IC50 (HCT-116 [4]): 740 nM | IC50 (HeLa): 740 nM | IC50 (HepG2): 740 nM | IC50 (HCT-116 [7]): 5.1 nM | IC50 (Caco-2 [8]): 130 nM
SMILES: COc1cc(C)c2oc(=O)c(C)c3c2c1[C@@H](C)CO3

SMILES: COc1ccc2ccc(=O)oc2c1CC=C(C)C [OSTHOLE]
inhibition at 100 µM (MDA-MB-231): 97.6%
